Experiments:
Assay in all cases: Peptidase detection on Columbia medium (Example 2)
Assay type in all cases: cell-based
Details in all cases: 40 mg in 400 ml Columbia; 24 h 37° C.
[1] = tested on: Escherichia coli NCTC 10 418; design: key to Growth: NG: No growth; 0.5: weak growth; 1: moderate growth; 2: good growth
[2] = tested on: Serratia marcescens NCTC 10 211; design: key to Growth: NG: No growth; 0.5: weak growth; 1: moderate growth; 2: good growth
Method: (§1) The 6 media were distributed into Petri dishes 90 mm in diameter, in a proportion of 20 ml per dish.
(§2) Seventeen strains of microorganisms stemming from collections and belonging to various species of bacteria and yeasts are inoculated in spots of approximately 10 000 colony-forming units.
(§3) The media are incubated for 24 hours at 37° C., and then the colonies formed are examined visually, with or without the addition of acid and under a UV lamp at 365 nm.

[3] = tested on: Pseudomonas aeruginosa NCTC 10 662; design: key to Growth: NG: No growth; 0.5: weak growth; 1: moderate growth; 2: good growth; key to Color: —: no color
[4] = tested on: Yersinia enterocolitica NCTC 11 176; design: key to Growth: NG: No growth; 0.5: weak growth; 1: moderate growth; 2: good growth; key to Color: —: no color
Method: as §1, §2, §3

[5] = tested on: Salmonella typhimurium NCTC 74; design: key to Growth: NG: No growth; 0.5: weak growth; 1: moderate growth; 2: good growth
Method: as §1, §2, §3

[6] = tested on: Enterobacter cloacae NCTC 11 936; design: key to Growth: NG: No growth; 0.5: weak growth; 1: moderate growth; 2: good growth
Method: as §1, §2, §3

[7] = tested on: Providencia rettgeri NCTC 7 475; design: key to Growth: NG: No growth; 0.5: weak growth; 1: moderate growth; 2: good growth
Method: as §1, §2, §3

[8] = tested on: Bacillus subtilis NCTC 9 372; design: key to Growth: NG: No growth; 0.5: weak growth; 1: moderate growth; 2: good growth; key to Fluo. / Color / Color post-acid.: —: no color
Method: as §1, §2, §3

[9] = tested on: Enterococcus faecalis NCTC 775; design: key to Growth: NG: No growth; 0.5: weak growth; 1: moderate growth; 2: good growth; key to Fluo. / Color / Color post-acid.: —: no color
Method: as §1, §2, §3

[10] = tested on: Enterococcus faecium NCTC 7 171; design: key to Growth: NG: No growth; 0.5: weak growth; 1: moderate growth; 2: good growth; key to Fluo. / Color / Color post-acid.: —: no color
Method: as §1, §2, §3

[11] = tested on: Staphylococcus epidermidis NCTC 11 047; design: key to Growth: NG: No growth; 0.5: weak growth; 1: moderate growth; 2: good growth; key to Fluo. / Color / Color post-acid.: —: no color
[12] = tested on: Staphylococcus aureus NCTC 6 571; design: key to Growth: NG: No growth; 0.5: weak growth; 1: moderate growth; 2: good growth; key to Fluo. / Color / Color post-acid.: —: no color
Method: as §1, §2, §3

[13] = tested on: Staphylococcus aureus NCTC 11 939; design: key to Growth: NG: No growth; 0.5: weak growth; 1: moderate growth; 2: good growth; key to Fluo. / Color / Color post-acid.: —: no color
Method: as §1, §2, §3

[14] = tested on: Streptococcus pyogenes NCTC 8 306; design: key to Growth: NG: No growth; 0.5: weak growth; 1: moderate growth; 2: good growth; key to Fluo. / Color / Color post-acid.: —: no color
Method: as §1, §2, §3

[15] = tested on: Listeria monocytogenes NCTC 11 994; design: key to Growth: NG: No growth; 0.5: weak growth; 1: moderate growth; 2: good growth; key to Fluo. / Color / Color post-acid.: —: no color
[16] = tested on: Candida albicans ATCC 90 028; design: key to Growth: NG: No growth; 0.5: weak growth; 1: moderate growth; 2: good growth; key to Fluo. / Color / Color post-acid.: —: no color
Method: as §1, §2, §3

[17] = tested on: Candida glabrata NCPF 3 943; design: key to Growth: NG: No growth; 0.5: weak growth; 1: moderate growth; 2: good growth; key to Fluo. / Color / Color post-acid.: —: no color

Row | SMILES | Color [1] | Growth [1] | Color [2] | Growth [2] | Color [3] | Growth [3] | Growth [4] | Growth [5] | Color [6] | Growth [6] | Growth [7] | Color [8] | Growth [8] | Growth [9] | Color [10] | Growth [10] | Color [11] | Growth [11] | Color [12] | Growth [12] | also measured
1 | C[n+]1ccc(C=Cc2ccc(NC(=O)CC[C@H](N)C(=O)O)cc2)c2ccccc21.Cl.[Cl-] [λ-Glu-ASQM^+, L-gamma-glutamyl-4-(4′-amidostyryl)-N-methylquinolinium (dichloride)] | Orange | 2 | Orange | 2 | Orange | 2 | 2 | 2 | Orange | 2 | 2 | — | 1 | 1 | — | 1 | — | 1 | — | 1 | Color [4]: —; Color [5]: Orange; Color [7]: Orange; Color [9]: —; Color [13]: —; Growth [13]: 1; Color [14]: —; Growth [14]: 1; Color [15]: —; Growth [15]: 1; Color [16]: —; Growth [16]: 1; Color [17]: —; Growth [17]: 1
2 | C[n+]1ccc(C=Cc2ccc(NC(=O)[C@@H](N)Cc3ccc(O)cc3)cc2)c2ccccc21.Cl.[Cl-] [Tyr-ASQM^+, L-tyrosyl-4-(4′-amidostyryl)-N-methylquinolinium dihydrochloride] | Orange | 2 | Orange | 2 | — | 2 | 2 | 2 | Orange | 2 | 2 | — | 1 | 1 | — | 1 | — | 0.5 | — | NG | Color [13]: —; Growth [13]: NG; Color [14]: —; Growth [14]: NG; Color [15]: —; Growth [15]: 1; Color [16]: —; Growth [16]: 0.5; Color [17]: —; Growth [17]: NG
